Tests used:
mouse 11β-HSD1 = molecular target: T1, mouse 11β-HSD1 (Mus musculus, UniProt P50172); test: Inhibition of mouse 11β-HSD1, scintillation proximity assay (SPA) with microsomes from transfected HEK-293 cells; assay type: biochemical; settings: for IC50: microsomes, NADPH, [3H]cortisone, n = 2; for Mouse HSD2/HSD1: selectivity ratio IC50 mouse 11β-HSD2 / mouse 11β-HSD1
T1 construct: the full-length cDNAs of human or marine 11β-HSD1 and 11β-HSD2 were isolated from the cDNA libraries; made in house; host or cells: HEK-293 (stably transfected, pcDNA3); microsomal fraction
Source text: (§1) Glucocorticoid hormones play important roles in many biological and physiological processes, including regulation of energy metabolism; inflammatory, immune and stress responses; and cardiovascular homeostasis. The action of glucocorticoid on target tissue is not inevitable dependent on the circulating levels, but is regulated in a tissue-specific manner by the 11β-hydroxysteroid dehydrogenase enzymes (11β-HSD1 and 11β-HSD2), which catalyze the interconversion of active 11-hydroxyglucocorticoids (cortisol in human and corticosterone in rodent) and their respective inert 11-keto forms (cortisone in human and 11-dehyfrocorticosterone in rodent). […] 11β-HSD2 is predominantly expressed in aldosterone target cells such as kidney and colon, where it catalyses the inactivation of glucocorticoids, thereby preventing excessive activation of the mineralocorticoid receptor and sequelae including sodium retention, hypokalemia, and hypertension. We tested the inhibitory effect of compounds on both human and mouse 11β-HSD1 and 11β-HSD2. All tests were done duplicate with glycyrrhizininc acid (human and mouse 11β-HSD1, human 11β-HSD2) and carbenoxolone (mouse 11β-HSD2) as positive control. IC50 (X […] S.D., n = 2) values were calculated by using Prism Version 4 (GraphPad Software, San Diego, CA, USA.).
(§2) Inhibition of compounds on human or mouse 11β-HSD1 and 11β-HSD2 enzymatic activities were determined by the scintillation proxitimity assay (SPA) using microsomes containing 11β-HSD1 or 11β-HSD2 according to the previous studies. Briefly the full-length cDNAs of human or marine 11β-HSD1 and 11β-HSD2 were isolated from the cDNA libraries provided by NIH Mammalian Gene Collection and cloned into pcDNA3 expression vector. HEK-293 cells were transfected with the pcDNA3-dericed expression plasmid and selected by cultivation in the presence of 700 μg/mL of G418. The microsomal fraction overexpressing 11β-HSD1 or 11β-HSD2 was prepared from the HEK-293 cells stable transfected with either 11β-HSD1 or 11β-HSD2 and used as the enzyme source for SPA. Microsomes containing human or mouse 11β-HSD1 was incubated with NADPH and [3H]cortisone, then the product, [3H]cortisol was specifically captured by a monoclonal antibody coupled to protein A-coated SPA beads. The 11β-HSD2 screening was performed by incubating 11β-HSD2 microsomes with [3H]cortisol and NAD^+ and monitoring substrate disappearance. IC50 (X ± S.D., n = 2) values were calculated by using Prism Version 4 (GraphPad Software, San Diego, CA, USA.) with glycyrrhizininc acid and carbenoxolone as positive control.

mouse 11β-HSD2 = molecular target: T2, mouse 11β-HSD2 (Mus musculus, UniProt P51661); test: Inhibition of mouse 11β-HSD2, SPA with microsomes from transfected HEK-293 cells; assay type: biochemical; settings: [3H]cortisol, NAD+, n = 2
T2 construct: the full-length cDNAs of human or marine 11β-HSD1 and 11β-HSD2 were isolated from the cDNA libraries; made in house; host or cells: HEK-293 (stably transfected, pcDNA3); microsomal fraction
T2 sequence (P51661 1-386): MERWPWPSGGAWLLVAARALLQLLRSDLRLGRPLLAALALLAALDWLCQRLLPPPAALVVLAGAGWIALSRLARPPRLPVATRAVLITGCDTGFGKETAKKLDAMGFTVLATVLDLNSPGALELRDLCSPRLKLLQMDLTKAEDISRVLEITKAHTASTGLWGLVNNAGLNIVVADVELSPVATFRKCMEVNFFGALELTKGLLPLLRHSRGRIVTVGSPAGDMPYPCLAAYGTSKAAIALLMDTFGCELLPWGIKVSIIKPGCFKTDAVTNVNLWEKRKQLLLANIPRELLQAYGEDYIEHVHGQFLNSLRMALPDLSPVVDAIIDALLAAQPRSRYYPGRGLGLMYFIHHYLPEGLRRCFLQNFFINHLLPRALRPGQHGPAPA
Source text: as §1, §2

human 11β-HSD1 = molecular target: T3, human 11β-HSD1 (Homo sapiens, UniProt P28845); test: Inhibition of human 11β-HSD1, SPA with microsomes from transfected HEK-293 cells; assay type: biochemical; settings: for IC50: microsomes, NADPH, [3H]cortisone, n = 2; for Human HSD2/HSD1: selectivity ratio IC50 human 11β-HSD2 / human 11β-HSD1
T3 construct: the full-length cDNAs of human or marine 11β-HSD1 and 11β-HSD2 were isolated from the cDNA libraries; made in house; host or cells: HEK-293 (stably transfected, pcDNA3); microsomal fraction
Source text: as §1, §2

human 11β-HSD2 = molecular target: T4, human 11β-HSD2 (Homo sapiens, UniProt P80365); test: Inhibition of human 11β-HSD2, SPA with microsomes from transfected HEK-293 cells; assay type: biochemical; settings: [3H]cortisol, NAD+, n = 2
T4 construct: the full-length cDNAs of human or marine 11β-HSD1 and 11β-HSD2 were isolated from the cDNA libraries; made in house; host or cells: HEK-293 (stably transfected, pcDNA3); microsomal fraction
T4 sequence (P80365 1-405): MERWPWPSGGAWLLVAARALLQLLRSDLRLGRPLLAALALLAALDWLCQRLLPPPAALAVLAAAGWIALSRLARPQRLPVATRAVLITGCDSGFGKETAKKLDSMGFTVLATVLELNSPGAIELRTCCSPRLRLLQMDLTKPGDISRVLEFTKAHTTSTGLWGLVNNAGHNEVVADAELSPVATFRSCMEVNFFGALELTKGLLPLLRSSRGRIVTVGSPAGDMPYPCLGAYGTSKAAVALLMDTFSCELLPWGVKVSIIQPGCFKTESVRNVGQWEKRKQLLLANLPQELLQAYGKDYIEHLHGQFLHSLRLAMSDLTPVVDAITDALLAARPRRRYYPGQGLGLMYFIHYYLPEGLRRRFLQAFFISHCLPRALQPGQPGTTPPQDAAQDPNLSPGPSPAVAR
Source text: as §1, §2

T3 sequence (P28845 whole entry): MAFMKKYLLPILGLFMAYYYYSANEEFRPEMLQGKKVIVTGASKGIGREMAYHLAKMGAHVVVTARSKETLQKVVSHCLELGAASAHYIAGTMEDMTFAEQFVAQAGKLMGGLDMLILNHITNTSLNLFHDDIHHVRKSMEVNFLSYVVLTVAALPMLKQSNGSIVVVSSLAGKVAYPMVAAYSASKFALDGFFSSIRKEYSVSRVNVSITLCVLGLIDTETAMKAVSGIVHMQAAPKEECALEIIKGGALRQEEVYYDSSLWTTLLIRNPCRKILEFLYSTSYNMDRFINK
T1 sequence (P50172 whole entry): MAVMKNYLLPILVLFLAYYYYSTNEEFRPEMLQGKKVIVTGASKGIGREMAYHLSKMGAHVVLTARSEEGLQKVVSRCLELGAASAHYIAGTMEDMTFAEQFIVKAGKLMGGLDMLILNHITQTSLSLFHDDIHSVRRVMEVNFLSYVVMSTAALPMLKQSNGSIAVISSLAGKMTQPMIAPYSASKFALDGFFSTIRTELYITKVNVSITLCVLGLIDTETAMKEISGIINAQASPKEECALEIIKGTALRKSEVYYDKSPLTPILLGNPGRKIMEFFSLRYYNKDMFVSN

Row | Structure (SMILES) | IC50 (mouse 11β-HSD1) | Mouse HSD2/HSD1 (mouse 11β-HSD1) | IC50 (mouse 11β-HSD2) | IC50 (human 11β-HSD1) | Human HSD2/HSD1 (human 11β-HSD1) | IC50 (human 11β-HSD2) | melting point
1 | C=C(CC[C@](C)(O)[C@@H]1CC[C@]2(C)C3CCC4C(C)(C)[C@@H](O)CC[C@]4(C)C3CC[C@@]12C)C(C)C (stereo partly drawn) [Compound 1, Euphane-3β,20-dihydroxy-24-ene] | 0.0784 µM | >12748 | > 1000 µM | 0.0349 µM | 234.6 | 8.18 µM | 
2 | C=C(C)[C@@H](O)CC[C@@H](C)[C@@H]1CC[C@]2(C)C3=C(CC[C@@]12C)[C@@]1(C)CC[C@H](O)C(C)(C)C1CC3 (stereo partly drawn) [Compound 5, (24R)-Eupha-8,25-diene-3β,24-diol] | 0.0495 µM | >20218 | > 1000 µM | 0.0265 µM | 63.7 | 1.69 µM | 
3 | CC(C)=CCCC(C)C1CCC2(C)C3=C(CCC12C)C1(C)CCC(O)C(C)(C)C1CC3=O (stereo not shown) [Compound 4, Kansenone] | 0.0134 µM | >74850 | > 1000 µM | 0.00281 µM | 38 | 0.107 µM | 
4 | C[C@H](C/C=C/C(C)(C)O)[C@@H]1CC[C@]2(C)C3=C(CC[C@@]12C)[C@@]1(C)CC[C@H](O)C(C)(C)C1CC3 (stereo partly drawn) [Compound 6, (20R,23E)-Eupha-8,23-diene-3β,25-diol] | 0.295 µM | >3393 | > 1000 µM | 0.016 µM | 41.7 | 0.666 µM | 132 to 133 °C
5 | CC(C)=CCC[C@@H](C)[C@@H]1CC[C@]2(C)C(=O)[C@]3(CC[C@@]12C)[C@@H](O)CC1C(C)(C)[C@@H](O)CC[C@@]13C (stereo partly shown) [Compound 2, Kansuinone] | 1.08 µM | >928 | > 1000 µM | 1.11 µM | 2.35 | 2.63 µM | 
6 | CC(C)=CCC[C@@H](C)[C@@H]1CC[C@]2(C)C3=C(CC[C@@]12C)[C@@]1(C)CC[C@H](O)C(C)(C)[C@@H]1CC3 [Compound 3, Euphol] | 0.0805 µM | >12419 | > 1000 µM | 0.0161 µM | 24.6 | 0.395 µM | 

Reference: paper PMC6268726, “Inhibition of 11β-HSD1 by Tetracyclic Triterpenoids from Euphorbia kansui” (Molecules, 2012)
